Molecules are shown by their SMILES.

One may read the IC50 as the midpoint of a concentration-inhibition curve.

In one experiment the test system is Entamoeba histolytica. Nature of the experiment: Potency index, ratio of metronidazole IC50 to compound IC50 for trophozoite stage of Entamoeba histolytica HM-1:IMSS. The experiment is classed as functional.
`O=[N+]([O-])c1ccc(-c2ccc(/C=N/Nc3ccccc3)o2)cc1`: the “Ratio IC50” value is 7.

The subject of another experiment is Entamoeba histolytica. Put plainly: Amoebicidal activity against trophozoite stage of Entamoeba histolytica HM-1:IMSS assessed as growth inhibition after 72 hrs by carboxyfluorescein diacetate/propidium iodide staining-based fluorescence microscopic analysis. The experiment is classed as functional, organism-based.
Take `C(=N\N=C\c1ccccc1)/c1ccccc1`: the IC50 was found to be 96 µM.
Take `O=[N+]([O-])c1ccc(-c2ccc(/C=N/Nc3ccccc3)o2)cc1`: the IC50 worked out at 0.98 µM.
Consider `O=C(/C(=N/N=C(/C(=O)c1ccccc1)c1ccccc1)c1ccccc1)c1ccccc1`, for which the IC50 worked out at 18 µM.
On the same count and under the same terms, as for `O=[N+]([O-])c1ccc(-c2ccc(/C=N/N=C/c3ccc(-c4ccc([N+](=O)[O-])cc4)o3)o2)cc1`, the figure is 13 µM.
For `C(=N\N(c1ccccc1)c1ccccc1)/c1cccs1`, the IC50 turned out to be 7.6 µM.
Regarding `O=[N+]([O-])c1ccc(-c2ccc(/C=N/N(c3ccccc3)c3ccccc3)o2)cc1`, the IC50 amounted to 16 µM.
As for `O=[N+]([O-])c1cccc(/C=N/N(c2ccccc2)c2ccccc2)c1`, the IC50 was determined as 19 µM.
Turning to `C(=N\Nc1ccccc1)/c1ccco1`, the IC50 came to 120 µM.
The same measure, in the same setting: the same measure for `C(=N\N(c1ccccc1)c1ccccc1)/c1ccccc1`: 78 µM; for `Cc1ncc([N+](=O)[O-])n1CCO` [METRONIDAZOLE]: 6.8 µM.
